The values that follow come from patent US20170121315A1, “HETEROBICYCLICALLY SUBSTITUTED 4-OXOBUTANE ACID DERIVATIVES AND USE THEREOF” (priority 2014, published 2017).

Usually IC50 stands for the concentration needed to halve the response being measured.

Series [1] has as its target T1, human macrophage elastase (HME/hMMP-12) (Homo sapiens, UniProt P39900).
T1 construct: purchased R&D Systems 917-MP
The series is described as follows: In vitro HME inhibition test (standard or high-sensitivity). It counts as biochemical. The conditions noted are these: in some cases mean values, rounded to two significant figures. Summed up:
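Autoactivated HME (0.5 nM; high-sensitivity format 0.05 nM, ~16 h) with 5 μM quenched Mca-PLGLEEA-Dap(Dnp)-NH2 substrate in HEPES pH 7.4, NaCl, CaCl2, ZnCl2, EDTA, Brij buffer, 2 h at 37° C. Fluorescence at ex 323/em 393 nm; IC50 from signal versus concentration.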

A further series concerns rat hepatocytes. In words: Hepatocyte assay for determination of metabolic stability. It counts as in vitro ADME. The conditions noted are these: after incubation with rat hepatocytes. The protocol:
The metabolic stability of test compounds towards hepatocytes is determined by incubating the compounds at low concentrations (preferably below or around 1 μM) and at low cell counts (preferably at 1*10^6 cells/ml) in order to ensure maximum linearity of kinetic conditions in the experiment. Seven samples from the incubation solution are taken for the LC-MS analysis within a fixed time pattern, in order to determine the half-life (i.e. the degradation) of the particular compound. This half-life is used to calculate various “Clearance” parameters (CL) and “Fmax” values (see below).
The CL and Fmax values are a measure of the phase 1 and phase 2 metabolism of the compounds in the hepatocytes. In order to minimize the influence of the organic solvent on the enzymes in the incubation batches, the concentration thereof is generally limited to 1% (acetonitrile) or 0.1% (DMSO).
For all species and breeds, a hepatocyte cell count in the liver of 1.1*10^8 cells/g of liver is expected.

T1 sequence (P39900 106-470): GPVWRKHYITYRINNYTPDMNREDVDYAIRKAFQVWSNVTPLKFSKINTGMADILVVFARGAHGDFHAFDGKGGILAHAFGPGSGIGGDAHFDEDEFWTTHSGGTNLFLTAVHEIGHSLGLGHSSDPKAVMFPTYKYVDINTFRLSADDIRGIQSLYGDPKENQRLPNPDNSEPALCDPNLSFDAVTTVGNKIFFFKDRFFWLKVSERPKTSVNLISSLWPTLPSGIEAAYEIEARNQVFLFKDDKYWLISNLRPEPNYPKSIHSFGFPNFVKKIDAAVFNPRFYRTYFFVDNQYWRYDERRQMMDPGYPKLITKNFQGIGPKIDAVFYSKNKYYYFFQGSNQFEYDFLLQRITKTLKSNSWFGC

As for `O=C(CC(CCn1nnc2ccccc2c1=O)C(=O)O)c1coc2cc(OCc3ccc(Cl)c(Cl)c3)ccc12` (single isomer, unassigned) [Example 94, 4-{6-[(3,4-Dichlorobenzyl)oxy]-1-benzofur-3-yl}-4-oxo-2-[2-(4-oxo-1,2,3-benzotriazin-3(4H)-yl)ethyl]butanoic acid], the IC50 in series [1] stood at 0.82 nM. In the series on rat hepatocytes, the “CLblood (calculated blood clearance, well-stirred)” value was 1.55 L/h/kg and the “Fmax (maximum possible bioavailability after oral administration, well-stirred)” value is recorded as 63.2%.

The compound `CCCCCOc1ccc2cc(C(=O)CC(CCn3nnc4ccccc4c3=O)C(=O)O)oc2c1` (single isomer, unassigned; (+)) [Example 57, (+)-4-Oxo-2-[2-(4-oxo-1,2,3-benzotriazin-3(4H)-yl)ethyl]-4-[6-(pentyloxy)-1-benzofur-2-yl]butanoic acid] returned an IC50 in series [1] of 2.1 nM. Besides, in the series on rat hepatocytes, the “CLblood (calculated blood clearance, well-stirred)” value is 2.14 L/h/kg and the “Fmax (maximum possible bioavailability after oral administration, well-stirred)” value is 48.9%.

As for `O=C(C[C@@H](CCn1nnc2ccccc2c1=O)C(=O)O)c1noc2cc(OCC3CCOCC3)ccc12` (single isomer, unassigned; enantiomer 1) [Example 134], the IC50 in series [1] turned out to be 24 nM. Moreover, in the series on rat hepatocytes, the “CLblood (calculated blood clearance, well-stirred)” value was 1.18 L/h/kg and the “Fmax (maximum possible bioavailability after oral administration, well-stirred)” value came out at 71.8%.

Regarding `NC(=O)c1cccc(COc2ccc3oc(C(=O)CC(CCn4nnc5ccccc5c4=O)C(=O)O)cc3c2)c1` (racemic) [Example 32, (+/−)-4-{5-[(3-Carbamoylbenzyl)oxy]-1-benzofur-2-yl}-4-oxo-2-[2-(4-oxo-1,2,3-benzotriazin-3(4H)-yl)ethyl]butanoic acid], it took 0.68 nM to reach half-maximal inhibition in series [1] (IC50). For the same compound, in the series with rat hepatocytes, the “CLblood (calculated blood clearance, well-stirred)” value was 1.32 L/h/kg and the “Fmax (maximum possible bioavailability after oral administration, well-stirred)” value is reported as 68.5%.

In series [1], `O=C(CC(CCn1nnc2ccccc2c1=O)C(=O)O)c1noc2cc(OCC3CCOCC3)ccc12` (racemic) [Example 133, (+/−)-4-Oxo-2-[2-(4-oxo-1,2,3-benzotriazin-3(4H)-yl)ethyl]-4-[6-(tetrahydro-2H-pyran-4-ylmethoxy)-1,2-benzoxazol-3-yl]butanoic acid] came in with an IC50 of 0.24 nM. In the series with rat hepatocytes, the “CLblood (calculated blood clearance, well-stirred)” value is 0.80 L/h/kg and the “Fmax (maximum possible bioavailability after oral administration, well-stirred)” value was 81.1%.

Consider `O=C(CC(CCn1nnc2ccc(C(F)(F)F)cc2c1=O)C(=O)O)c1cc2ccc(OCC3CC3)cc2s1` (single isomer, unassigned; enantiomer 2) [Example 130, 4-[6-(Cyclopropylmethoxy)-1-benzothiophen-2-yl]-4-oxo-2-{2-[4-oxo-6-(trifluoromethyl)-1,2,3-benzotriazin-3(4H)-yl]ethyl}butanoic acid (enantiomer 2)], for which, in series [1], the IC50 came to 0.12 nM. In the series with rat hepatocytes, the “CLblood (calculated blood clearance, well-stirred)” value was 2.09 L/h/kg and the “Fmax (maximum possible bioavailability after oral administration, well-stirred)” value worked out at 50.3%.

With `O=C(CC(CCn1nnc2ccccc2c1=O)C(=O)O)c1coc2cc(OCCc3ccccc3)ccc12` (racemic) [Example 110, (+/−)-4-Oxo-2-[2-(4-oxo-1,2,3-benzotriazin-3(4H)-yl)ethyl]-4-[6-(2-phenylethoxy)-1-benzofur-3-yl]butanoic acid], in series [1], it took 0.54 nM to reach half-maximal inhibition (IC50).

In series [1], `CS(=O)(=O)c1ccc(COc2ccc3oc(C(=O)CC(CCn4nnc5ccccc5c4=O)C(=O)O)cc3c2)cc1` (racemic) [Example 38, (+/−)-4-(5-{[4-(Methylsulphonyl)benzyl]oxy}-1-benzofur-2-yl)-4-oxo-2-[2-(4-oxo-1,2,3-benzotriazin-3(4H)-yl)ethyl]butanoic acid] gave an IC50 of 0.72 nM. In the series on rat hepatocytes, the “CLblood (calculated blood clearance, well-stirred)” value is 0.75 L/h/kg and the “Fmax (maximum possible bioavailability after oral administration, well-stirred)” value came out at 82.1%.

With `O=C(CC(CCn1nnc2ccccc2c1=O)C(=O)O)c1cc2cc(OCc3ccc(F)cc3)ccc2o1` (racemic) [Example 22, (+/−)-4-{5-[(4-Fluorobenzyl)oxy]-1-benzofur-2-yl}-4-oxo-2-[2-(4-oxo-1,2,3-benzotriazin-3(4H)-yl)ethyl]butanoic acid], half-maximal inhibition in series [1] (IC50) was put at 2.5 nM.

For the compound `CCCCCOc1ccc2cc(C(=O)CC(CCn3nnc4ccccc4c3=O)C(=O)O)oc2c1` (single isomer, unassigned; (-)) [Example 56, (−)-4-Oxo-2-[2-(4-oxo-1,2,3-benzotriazin-3(4H)-yl)ethyl]-4-[6-(pentyloxy)-1-benzofur-2-yl]butanoic acid], the IC50 in series [1] was determined as 1400 nM. This IC50 is about 560-fold higher than that of the compound before.

Turning to `CCCCOc1ccc2c(C(=O)CC(CCn3nnc4ccccc4c3=O)C(=O)O)coc2c1` (racemic) [Example 107, (+/−)-4-(6-Butoxy-1-benzofur-3-yl)-4-oxo-2-[2-(4-oxo-1,2,3-benzotriazin-3(4H)-yl)ethyl]butanoic acid], the IC50 in series [1] amounted to 0.61 nM.

The compound `O=C(CC(CCn1nnc2ccccc2c1=O)C(=O)O)c1cc2ccc(OCC3CCC3)cc2s1` (racemic) [Example 121, (+/−)-4-[6-(Cyclobutylmethoxy)-1-benzothiophen-2-yl]-4-oxo-2-[2-(4-oxo-1,2,3-benzotriazin-3(4H)-yl)ethyl]butanoic acid] returned an IC50 in series [1] of 3.1 nM.

`O=C(CC(CCn1nnc2ccccc2c1=O)C(=O)O)c1cc2cc(OCCCC(F)(F)F)ccc2o1` (single isomer, unassigned; enantiomer 1) [Example 12, (−)-4-Oxo-2-[2-(4-oxo-1,2,3-benzotriazin-3(4H)-yl)ethyl]-4-[5-(4,4,4-trifluorobutoxy)-1-benzofur-2-yl]butanoic acid (enantiomer 1)] came in with an IC50 in series [1] of 900 nM.

Regarding `CCCCCOc1ccc2c(C(=O)CC(CCn3nnc4ccccc4c3=O)C(=O)O)coc2c1` (single isomer, unassigned) [Example 90, 4-Oxo-2-[2-(4-oxo-1,2,3-benzotriazin-3(4H)-yl)ethyl]-4-[6-(pentyloxy)-1-benzofur-3-yl]butanoic acid], the IC50 in series [1] was determined as 81 nM.

`Cc1c(COc2ccc3oc(C(=O)CC(CCn4nnc5ccccc5c4=O)C(=O)O)cc3c2)cccc1C(F)(F)F` (racemic) [Example 48, (+/−)-4-(5-{[2-Methyl-3-(trifluoromethyl)benzyl]oxy}-1-benzofur-2-yl)-4-oxo-2-[2-(4-oxo-1,2,3-benzotriazin-3(4H)-yl)ethyl]butanoic acid] had an IC50 in series [1] of 4 nM.

For the compound `O=C(CC(CCn1nnc2ccccc2c1=O)C(=O)O)c1coc2cc(OCC3CCCC3)ccc12` (racemic) [Example 78, (+/−)-4-[6-(Cyclopentylmethoxy)-1-benzofur-3-yl]-4-oxo-2-[2-(4-oxo-1,2,3-benzotriazin-3(4H)-yl)ethyl]butanoic acid], the IC50 in series [1] was determined as 2 nM.

`O=C(CC(CCn1nnc2ccccc2c1=O)C(=O)O)c1coc2cc(OCc3ccccc3)ccc12` (racemic) [Example 84, (+/−)-4-[6-(Benzyloxy)-1-benzofur-3-yl]-4-oxo-2-[2-(4-oxo-1,2,3-benzotriazin-3(4H)-yl)ethyl]butanoic acid]: the midpoint of inhibition in series [1], the IC50, lay at 4 nM. Compared with the last compound, the IC50 is about 2-fold higher.

In the case of `O=C(CC(CCn1nnc2ccccc2c1=O)C(=O)O)c1cc2cc(OCC3CCCC3)ccc2o1` (racemic) [Example 16, (+/−)-4-[5-(Cyclopentylmethoxy)-1-benzofur-2-yl]-4-oxo-2-[2-(4-oxo-1,2,3-benzotriazin-3(4H)-yl)ethyl]butanoic acid], in series [1], the IC50 is 24 nM. This IC50 is about 6-fold higher than that of the compound before.

Consider `O=C(CC(CCn1nnc2ccccc2c1=O)C(=O)O)c1coc2cc(OCc3ccc(Cl)c(Cl)c3)ccc12` (racemic) [Example 92, (+/−)-4-{6-[(3,4-Dichlorobenzyl)oxy]-1-benzofur-3-yl}-4-oxo-2-[2-(4-oxo-1,2,3-benzotriazin-3(4H)-yl)ethyl]butanoic acid], for which half-maximal inhibition in series [1] (IC50) was put at 1.3 nM.

As to `CCCCCCCOc1ccc2c(C(=O)CC(CCn3nnc4ccccc4c3=O)C(=O)O)coc2c1` (single isomer, unassigned; (-)) [Example 102, (−)-4-[6-(Heptyloxy)-1-benzofur-3-yl]-4-oxo-2-[2-(4-oxo-1,2,3-benzotriazin-3(4H)-yl)ethyl]butanoic acid], half-maximal inhibition in series [1] (IC50) required 2100 nM.

Compound `CCCCCCOc1ccc2cc(C(=O)CC(CCn3nnc4ccccc4c3=O)C(=O)O)oc2c1` (single isomer, unassigned; (-)) [Example 65, (−)-4-[6-(Hexyloxy)-1-benzofur-2-yl]-4-oxo-2-[2-(4-oxo-1,2,3-benzotriazin-3(4H)-yl)ethyl]butanoic acid] came in with an IC50 in series [1] of 340 nM.

With `O=C(O)[C@@H]1[C@@H](Cn2nnc3ccc(C(F)(F)F)cc3c2=O)CC[C@H]1C(=O)c1cc2cc(OCCc3ccccc3)ccc2o1` (single isomer, unassigned; enantiomer 1) [Example 158, (−)-(1RS,2SR,5RS)-2-{[4-Oxo-6-(trifluoromethyl)-1,2,3-benzotriazin-3(4H)-yl]methyl}-5-{[5-(2-phenylethoxy)-1-benzofur-2-yl]carbonyl}cyclopentanecarboxylic acid (enantiomer 1)], the IC50 in series [1] is 260 nM.
